Test results published in patent US20220071952A1, “METHODS OF TREATING AND PREVENTING HEPATOTOXICITY” (Natreon, Inc., priority 2020, published 2022).
Several values for one entry are separate records, joined by “and”; a condition that tells them apart may be missing. Equal entries are not always repeated.

What was measured:
[1] = system: alcohol-induced hepatotoxicity in mice; test: Alcohol (ethanol)-induced hepatotoxicity in mice, biochemical and physical parameters (Example III); type: in vivo, Swiss Albino mice; conditions: for Relative organ weight (w.r.t body weight) Kidney / Relative organ weight (w.r.t body weight) Liver / ACP / ALP / ALT(SGPT) / AST(SGOT) / Total Protein: 10 mg/kg p.o. + alcohol 5 g/kg p.o. twice daily, mean ± SD; for ACP / ALP / ALT(SGPT) / AST(SGOT) / Total Protein: plasma
Experimental: Swiss Albino male and female mice weighing approximately 30±5 g, 2 month old mice were obtained from National Research Institute of Ayurveda for Drug Development (Govt. of India), Kolkata, and were housed in polypropylene cages at 22±3° C., relative air humidity of 45 to 55%, with 12.00 hr light & dark cycle (lighting on from 6:00 AM to 6:00 PM). Mice were provided a standard pellet chow diet (carbohydrate 65.5%, protein 17.6%, fat 6.6%) and distilled water ad libitum. The mice were acclimatized for one week in the laboratory conditions, before being used in the experiment. All experiments were conducted between 10.00 hr and 14.00 hr. Principles of laboratory animals care (NIH publication no. 85-23, revised 1985) were followed.
In the present study simultaneous administration of alcohol (ethanol) and treatment with 3-OH-DBP and 3,8-(OH)2-DBP was done.
Vehicle control animals (“Con Veh”) were administered 0.3% CMC orally for 15 days.
Animals receiving ethanol (“Alc+0.3 CMC”, “3-OH-DBP+Alc”, “3,8-(OH)2-DBP+Alc”) were administered ethanol in 0.3% CMC orally as discussed above.
Results were expressed in terms of mean±SD (n=8). The data were subjected to one way ANOVA followed by Tukey's test using GraphPad Prism 4.0 software to establish statistical significance (*p<0.05, **p<0.01, ***p<0.001 vs. vehicle control; # p<0.05, ## p<0.01, ### p<0.001 vs. animals administered ethanol only).

[2] = system: paracetamol-induced hepatotoxicity in mice; test: Paracetamol-induced hepatotoxicity in mice, serum biochemical parameters (Example I); type: in vivo, Swiss albino mice; conditions: for ALP / ALT / AST / Total Bilirubin / Total Protein / Triglyceride: 10 mg/kg p.o. + paracetamol 200 mg/kg p.o., 7 days, serum, mean ± SD, n=6
Text: 3-OH-DBP (Natreon, Inc., New Brunswick, N.J., synthesized to 99% purity w/w) was in the form of a white free flowing powder. 3,8-(OH)2-DBP (Natreon, Inc., New Brunswick, N.J., synthesized to 99% purity w/w) was in the form of a pale green free flowing powder. Paracetamol (acetaminophen) was in the form of a white solid tablet.
Swiss albino mice of both sexes, weighing approximately 25-30 g, were obtained from National Research Institute of Ayurveda for Drug Development (Govt. of India), Kolkata, and were housed in polypropylene cages at 22±3° C., relative air humidity of 45 to 55%, with 12.00 hr light and dark cycle (lighting on from 6:00 AM to 6:00 PM). Mice were provided standard pellet chow (carbohydrate 65.5%, protein 17.6%, fat 6.6%) and distilled water ad libitum. The mice were acclimatized for one week in the above laboratory conditions, before being used in this experiment. All experiments were conducted between 10.00 hr and 14.00 hr. Principles of laboratory animal care (NIH publication no. 85-23, revised 1985) were followed.
The animals were randomly assigned into four groups of six animals each, as set out in Table 1. […] After 1 hr of last treatment, blood samples were collected and serum was separated.

[3] = system: alcohol-induced hepatotoxicity in mice; test: Synergistic hepatoprotective activity of DBPs against alcohol-induced hepatotoxicity (Example IV); conditions: for ACP / ALP / ALT / AST / Total Protein: alcohol 5 g/kg, mean ± SEM, n=4
Experimental: Hepatotoxicity was induced by oral administration of alcohol (ethanol: 5 g/kg) from stock 400 mg/ml twice daily for 15 days.
3-OH-DBP and 3,8-(OH)2-DBP were each separately suspended in 0.3% CMC and administered at a dose of 10 mg/kg body weight per orally for 15 days. During the 15 days treatment, body weight, food intake, and water intake were monitored at regular intervals. Following 15 days of treatment physical parameters (relative organ weight) and biochemical parameters (plasma total protein content, ALT, AST, ALP, and ACP) were studied.
3-OH-DBP (2 mg/kg body weight, 10 mg/kg body weight);
3,8-(OH)2-DBP (10 mg/kg body weight, 50 mg/kg body weight); and

[4] = female mice (Table 14), 10 mg/kg p.o.
[5] = male mice (Table 13), 10 mg/kg p.o.
[6] = female mice, doses 3-OH-DBP 2, 3,8-(OH)2-DBP 10, combination 12 mg/kg b.w.
[7] = male mice, doses 3-OH-DBP 2, 3,8-(OH)2-DBP 10, 1:5 combination 12 mg/kg b.w.
[8] = male mice, doses 3-OH-DBP 10, 3,8-(OH)2-DBP 50, 1:5 combination 60 mg/kg b.w.

SMILES: O=c1oc2cc(O)ccc2c2ccc(O)cc12 [3,8-(OH)2-DBP, 3,8-dihydroxy-dibenzo-alpha-pyrone]
- hepatoprotective activity against alcohol-induced hepatotoxicity ([1]; 10 mg/kg p.o., 15 days): significant hepatoprotective activity
- effect on alcohol-induced increased plasma ACP [1, 4]: significantly (p<0.05) attenuated
- effect on alcohol-induced increased plasma ALT [1, 4]: significantly (p<0.001) attenuated
- effect on alcohol-induced increased plasma AST [1, 4]: significantly (p<0.05; p<0.01) attenuated
- effect on plasma ALP level compared with ALC group [1, 4]: did not show significant (p>0.05) change
- Relative organ weight (w.r.t body weight) Kidney ([1]; female mice, 15 days): 0.012 ± 0.001
- Relative organ weight (w.r.t body weight) Liver ([1]; female mice, 15 days): 0.048 ± 0.001
- ACP ([1]; female mice, 15 days): 4.31 ± 2.84^## IU/L
- ALP ([1]; female mice, 15 days): 43.12 ± 5.84 IU/L
- ALT(SGPT) ([1]; female mice, 15 days): 6.72 ± 0.727^## IU/L
- AST(SGOT) ([1]; female mice, 15 days): 3.62 ± 1.27^## IU/L
- Total Protein ([1]; female mice, 15 days): 3.229 ± 0.187 g/dL
- effect on alcohol-induced increased plasma ACP [1, 5]: significantly (p<0.05) attenuated
- effect on alcohol-induced increased plasma ALT [1, 5]: significantly (p<0.05) attenuated
- effect on alcohol-induced increased plasma AST [1, 5]: significantly (p<0.05) attenuated
- Relative organ weight (w.r.t body weight) Kidney ([1]; male mice, 15 days): 0.016 ± 0.002
- Relative organ weight (w.r.t body weight) Liver ([1]; male mice, 15 days): 0.044 ± 0.005
- ACP ([1]; male mice, 15 days): 4.29 ± 1.22^## IU/L
- ALP ([1]; male mice, 15 days): 27.39 ± 6.15 ^ IU/L
- ALT(SGPT) ([1]; male mice, 15 days): 9.98 ± 3.44^# IU/L
- AST(SGOT) ([1]; male mice, 15 days): 4.51 ± 1.80^# IU/L
- Total Protein ([1]; male mice, 15 days): 3.229 ± 0.187^ g/dl
- effect on paracetamol-induced hepatotoxicity (ALT, AST, triglyceride, bilirubin vs paracetamol group) ([2]; 10 mg/kg body weight, male (Table 2) and female (Table 3) mice): significantly attenuated and reversed the paracetamol-induced hepatotoxicity
- hepatoprotective activity against paracetamol, comparison of both test compounds ([2]; female mice, 10 mg/kg orally for 7 days, paracetamol 200 mg/kg): almost the same hepatoprotective activity
- ALP ([2]; female mice): 105.1 ± 12.40 IU/L
- ALT ([2]; female mice): 76.91 ± 16.87 IU/L
- AST ([2]; female mice): 51.76 IU/L and 51.76 ± 3.72 IU/L
- Total Bilirubin ([2]; female mice): 0.58 ± 0.30 mg/dL
- Total Protein ([2]; female mice): 5.41 ± 0.49 mg/dL
- Triglyceride ([2]; female mice): 45.13 ± 0.80 mg/dL
- ALP ([2]; male mice): 107.1 ± 19.11 IU/L
- ALT ([2]; male mice): 95.97 ± 29.52 IU/L
- AST ([2]; male mice): 85.75 ± 11.59 IU/L
- Total Bilirubin ([2]; male mice): 0.48 ± 0.14 mg/dL
- Total Protein ([2]; male mice): 5530 ± 230 mg/dL
- Triglyceride ([2]; male mice): 57.06 ± 0.90 mg/dL
- hepatoprotective activity (conclusion, Tables 17 and 18) ([3]; alcohol-induced hepatotoxicity, male and female mice): hepatoprotective activity in a dose dependent manner
- ACP [3, 6]: 15.6 ± 0.99 U/L
- ALP [3, 6]: 84 ± 6.5 (c) IU/L
- ALT [3, 6]: 45.80 ± 5.76 (c)^ IU/L
- AST [3, 6]: 64.09 ± 7.34 (c)^ IU/L
- Total Protein [3, 6]: 6.53 ± 0.10 g/dL
- Relative liver weight ([3]; female mice, alcohol study of Example IV): significantly decreased
- ACP, difference in values from alcohol treated mice [3, 6]: (c) B = (a-c = 5.67) U/L
- ALP, difference in values from alcohol treated mice [3, 6]: B = (a-c = 55.35) IU/L
- ALT, difference in values from alcohol treated mice [3, 6]: B = (a-c = 43.04) IU/L
- AST, difference in values from alcohol treated mice [3, 6]: B = (a-c = 4.9) IU/L
- ACP [3, 7]: 11.2 ± 1.44 (c) U/L
- ALP [3, 7]: 88.1 ± 15.8 (c) IU/L
- ALT [3, 7]: 53.9 ± 3.99 (c) IU/L
- AST [3, 7]: 25.6 ± 3.10 (c) IU/L
- Total Protein [3, 7]: 7.65 ± 0.34 g/dL
- ACP [3, 8]: 9.19 ± 0.71 (f)^ U/L
- ALP [3, 8]: 78 ± 7.21 (f) IU/L
- ALT [3, 8]: 64.3 ± 2(f) ^ IU/L
- AST [3, 8]: 24.8 ± 2.19 (f) IU/L
- Total Protein [3, 8]: 8.60 ± 0.35 g/dL
- ACP, difference in values from alcohol treated mice [3, 7]: B = (a-c = 7.4) U/L
- ALP, difference in values from alcohol treated mice [3, 7]: B = (a-c = 45.9) IU/L
- ALT, difference in values from alcohol treated mice [3, 7]: B = (a-c = 52.1) IU/L
- AST, difference in values from alcohol treated mice [3, 7]: B = (a-c = 35.1) IU/L
- ACP, difference in values from alcohol treated mice [3, 8]: E = (a-f = 9.41) U/L
- ALP, difference in values from alcohol treated mice [3, 8]: E = (a-f = 56) IU/L
- ALT, difference in values from alcohol treated mice [3, 8]: E = (a-f = 41.7) IU/L
- AST, difference in values from alcohol treated mice [3, 8]: E = (a-f = 35.9) IU/L
